# Experiments:
# Type in all cases: cell-based
# EphB3 = molecular target: T1, EphB3 (Homo sapiens, UniProt P54753); experiment: EphB3 activation in HEK 293 cells overexpressing EphB3; details: HEK 293 overexpressing EphB3, high basal activation
# T1 construct: expressed in transfected cells; host or cells: HEK 293
# T1 sequence (P54753 34-998): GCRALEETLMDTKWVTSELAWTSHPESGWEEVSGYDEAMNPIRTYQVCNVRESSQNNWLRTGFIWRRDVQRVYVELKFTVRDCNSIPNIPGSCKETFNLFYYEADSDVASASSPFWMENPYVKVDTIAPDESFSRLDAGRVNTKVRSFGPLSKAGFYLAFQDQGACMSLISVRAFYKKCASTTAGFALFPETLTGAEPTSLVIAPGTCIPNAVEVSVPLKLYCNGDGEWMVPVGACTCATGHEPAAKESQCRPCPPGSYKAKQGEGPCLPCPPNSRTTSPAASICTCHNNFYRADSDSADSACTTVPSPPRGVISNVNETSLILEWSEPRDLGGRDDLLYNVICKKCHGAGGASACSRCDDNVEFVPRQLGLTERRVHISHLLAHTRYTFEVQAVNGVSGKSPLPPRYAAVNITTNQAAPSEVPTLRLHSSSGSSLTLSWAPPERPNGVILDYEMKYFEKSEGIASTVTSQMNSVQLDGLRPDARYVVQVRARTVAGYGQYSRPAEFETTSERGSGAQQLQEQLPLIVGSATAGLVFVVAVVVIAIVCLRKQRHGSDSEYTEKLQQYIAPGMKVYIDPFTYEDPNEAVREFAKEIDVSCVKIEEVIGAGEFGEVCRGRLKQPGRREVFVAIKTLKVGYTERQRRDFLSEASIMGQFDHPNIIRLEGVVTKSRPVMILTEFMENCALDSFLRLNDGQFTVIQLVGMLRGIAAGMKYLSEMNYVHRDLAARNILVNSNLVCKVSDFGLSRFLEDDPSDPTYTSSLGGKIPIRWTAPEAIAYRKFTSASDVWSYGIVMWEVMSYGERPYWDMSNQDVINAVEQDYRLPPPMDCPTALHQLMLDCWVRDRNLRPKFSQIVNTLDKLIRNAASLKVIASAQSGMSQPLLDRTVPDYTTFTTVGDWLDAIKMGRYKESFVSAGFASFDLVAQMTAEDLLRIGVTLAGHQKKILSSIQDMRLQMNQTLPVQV
# Experimental: (§4) Cells were plated in 24-well dishes at a density of 100,000 cells/well and grown for 24 hours prior to stimulation with appropriate compounds and ephrins for the given amounts of time. Compounds were prepared in DMSO at 500 times the final concentrations and 0.2% DMSO was used as vehicle control. Following treatment, cells were lysed directly in SDS Gel Loading Buffer and immunoblotted as described previously. […] For immunoprecipitation, 300,000 cells/well were plated in 6-well dishes and lysed in modified RIPA Buffer (20 mM Tris-HCl pH 7.4, 20 mM NaF, 150 mM NaCl, 10% glycerol, 0.1% SDS, 0.5% DCA, 2 mM EDTA, 1% Triton X-100) following treatment. Either 10 μg of ephrin-A1-Fc, or 4 mg of EphA2 mouse monoclonal antibody (Clone D7, Millipore) were used, and mouse IgG was used as a negative control for EphA2 IP. […] For this purpose, HEK 293 cell lines overexpressing EphA1, EphA2, EphA3, EphA4, and EphB3 kinases were utilized.
# [1] = tested on: MDA-MB-231 breast cancer cells; experiment: Haptotactic cell migration toward fibronectin, MDA-MB-231; details: MDA-MB-231, 4 hours
# From the text: (§1) One of the well-established functions of Eph receptors is the ligand-dependent repulsive guidance of cell migration. As a ligand-mimicking agonist for EphA2, doxazosin is expected to activate EphA2 on tumor cells and repulse migrating tumor cells in vitro. To test this possibility, we first investigated the effects of doxazosin on integrin-mediated haptotactic cell migration toward fibronectin in a modified Boyden chamber cell migration assay. […] The inhibitory effects were observed when doxazosin was presented either in the bottom chamber, or in both top and bottom chambers in the Transwell assay system. […] Therefore, doxazosin can recapitulate a key function attributed to its native ligands, i.e., negative regulation of cell migration.
# EphA2 = EphA2 (Homo sapiens, UniProt P29317); experiment: EphA2 internalization in U373-A2 cells (immunofluorescence); set-up: expressed in transfected cells; details: 60 min, DZ 50 μM, ephrin-A1-Fc 1 μg/ml
# Chain of EphA2 (P29317 24-976): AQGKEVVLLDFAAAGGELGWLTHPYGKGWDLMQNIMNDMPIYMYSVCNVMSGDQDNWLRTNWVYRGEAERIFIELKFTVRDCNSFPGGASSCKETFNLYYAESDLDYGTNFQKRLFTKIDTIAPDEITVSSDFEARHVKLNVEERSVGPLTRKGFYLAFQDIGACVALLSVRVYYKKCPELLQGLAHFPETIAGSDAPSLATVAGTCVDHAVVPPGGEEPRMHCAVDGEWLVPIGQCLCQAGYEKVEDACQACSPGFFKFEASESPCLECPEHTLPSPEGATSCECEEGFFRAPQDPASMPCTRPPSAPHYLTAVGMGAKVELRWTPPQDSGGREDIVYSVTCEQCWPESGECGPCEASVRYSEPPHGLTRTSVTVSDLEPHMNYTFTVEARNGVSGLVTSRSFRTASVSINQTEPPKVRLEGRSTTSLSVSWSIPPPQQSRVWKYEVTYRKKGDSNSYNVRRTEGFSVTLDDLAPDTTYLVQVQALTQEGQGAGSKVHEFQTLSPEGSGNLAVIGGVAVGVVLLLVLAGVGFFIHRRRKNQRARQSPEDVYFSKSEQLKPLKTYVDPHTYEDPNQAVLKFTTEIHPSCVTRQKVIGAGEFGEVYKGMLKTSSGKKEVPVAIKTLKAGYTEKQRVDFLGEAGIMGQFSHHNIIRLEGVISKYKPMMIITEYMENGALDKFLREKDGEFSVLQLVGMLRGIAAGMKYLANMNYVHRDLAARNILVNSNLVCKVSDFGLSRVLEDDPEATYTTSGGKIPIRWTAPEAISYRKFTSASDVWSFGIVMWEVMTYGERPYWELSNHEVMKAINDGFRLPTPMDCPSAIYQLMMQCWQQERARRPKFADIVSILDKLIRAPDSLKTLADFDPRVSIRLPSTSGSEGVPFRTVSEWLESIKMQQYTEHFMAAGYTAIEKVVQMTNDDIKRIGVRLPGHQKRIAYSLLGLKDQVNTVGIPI
# Experimental: (§2) Cells were plated in 24-well dishes at a density of 100,000 cells/well and grown for 24 hours prior to stimulation with appropriate compounds and ephrins for the given amounts of time. Compounds were prepared in DMSO at 500 times the final concentrations and 0.2% DMSO was used as vehicle control. Following treatment, cells were lysed directly in SDS Gel Loading Buffer and immunoblotted as described previously. Immunoprecipitation and immunofluorescence staining was performed as described. For immunoprecipitation, 300,000 cells/well were plated in 6-well dishes and lysed in modified RIPA Buffer (20 mM Tris-HCl pH 7.4, 20 mM NaF, 150 mM NaCl, 10% glycerol, 0.1% SDS, 0.5% DCA, 2 mM EDTA, 1% Triton X-100) following treatment. Either 10 μg of ephrin-A1-Fc, or […] of EphA2 mouse monoclonal antibody (Clone D7, Millipore) were used, and mouse IgG was used as a negative control for EphA2 IP.
# (§3) Similar to other receptor tyrosine kinases, activation of the EphA2 receptor by its ligand, ephrin-A1, results in receptor internalization and eventual degradation. […] This was first performed using the U373 glioma cell line engineered to overexpress EphA2.
# EphA1 = molecular target: T2, EphA1 (Homo sapiens, UniProt P21709); experiment: EphA1 activation in HEK 293 cells overexpressing EphA1; details: HEK 293 overexpressing EphA1, same concentrations
# T2 construct: expressed in transfected cells; host or cells: HEK 293
# T2 sequence (P21709 26-976): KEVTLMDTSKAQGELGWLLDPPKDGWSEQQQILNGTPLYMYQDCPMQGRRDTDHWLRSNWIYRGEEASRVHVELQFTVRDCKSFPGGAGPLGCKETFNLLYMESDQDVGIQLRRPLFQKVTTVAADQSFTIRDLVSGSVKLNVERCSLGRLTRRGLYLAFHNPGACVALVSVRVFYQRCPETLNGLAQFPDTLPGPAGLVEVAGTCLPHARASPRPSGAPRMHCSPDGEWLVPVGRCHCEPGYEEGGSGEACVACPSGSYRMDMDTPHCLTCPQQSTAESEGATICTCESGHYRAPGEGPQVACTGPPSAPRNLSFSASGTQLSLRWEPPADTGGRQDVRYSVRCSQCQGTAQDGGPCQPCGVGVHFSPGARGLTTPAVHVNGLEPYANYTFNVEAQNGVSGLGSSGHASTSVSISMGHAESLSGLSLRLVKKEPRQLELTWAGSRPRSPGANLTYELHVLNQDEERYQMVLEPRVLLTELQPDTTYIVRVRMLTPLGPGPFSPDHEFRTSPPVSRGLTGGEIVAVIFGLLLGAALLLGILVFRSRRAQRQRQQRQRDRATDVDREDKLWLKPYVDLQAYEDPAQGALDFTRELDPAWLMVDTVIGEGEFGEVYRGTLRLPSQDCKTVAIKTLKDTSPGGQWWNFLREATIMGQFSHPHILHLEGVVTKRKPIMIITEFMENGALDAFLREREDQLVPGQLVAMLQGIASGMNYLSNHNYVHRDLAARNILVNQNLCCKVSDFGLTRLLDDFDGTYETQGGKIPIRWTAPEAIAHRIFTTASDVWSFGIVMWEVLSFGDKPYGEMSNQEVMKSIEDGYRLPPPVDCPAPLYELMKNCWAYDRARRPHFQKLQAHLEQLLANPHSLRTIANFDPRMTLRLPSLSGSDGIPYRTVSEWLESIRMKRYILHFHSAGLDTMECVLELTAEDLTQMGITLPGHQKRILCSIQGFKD
# Experimental: as §4
# endogenous EphA2 = endogenous EphA2 (Homo sapiens, UniProt P29317); experiment: EphA2 internalization in parental MDA-MB-231 cells (immunofluorescence, Example 1); set-up: host or cells: MDA-MB-231 (parental); details: 50 μM, two hours
# Chain of endogenous EphA2 (P29317 24-976): as the sequence (P29317 24-976) above
# Experimental: as §2, §3
# A172-A2 glioma cells = experiment: Haptotactic cell migration toward fibronectin, A172-A2; details: A172-A2, 4 hours
# From the text: as §1
compound,measurement,setting,value
"COc1cc2nc(N3CCN(C(=O)C4COc5ccccc5O4)CC3)nc(N)c2cc1OC (stereo not drawn) [Doxazosin, 2-[4-(2,3-Dihydro-1,4-benzodioxine-2-carbonyl)piperazin-1-yl]-6,7-dimethoxyquinazolin-4-amine]",EphB3 activation,EphB3,notable decrease in EphB3 activation
same,haptotactic cell migration toward fibronectin,[1],dose-dependent inhibition of cell migration
same,EphA2 internalization,EphA2,stimulated significant EphA2 internalization
same,EphA1 activation,EphA1,no activation of EphA1
same,EphA2 internalization,endogenous EphA2,caused significant internalization of the endogenous EphA2
same,haptotactic cell migration toward fibronectin,A172-A2 glioma cells,dose-dependent inhibition of cell migration
